Holding throughout (assay): NCI tumour cell line growth inhibition, 48 h
Test [1] concerns CAKI-1 renal.
Test [2] relates to HOP-92 NSCLC.
The subject of test [3] is 786-0 renal.
Test [4] concerns MDA-MB-435.
The test system of test [5] is DU-145 prostate.
For test [6], the system named is SK-MEL-28 melanoma.
Test [7] concerns CCRF-CEM leukemia.
The subject of test [8] is SW-620 colon.
Test [9] has as its system SR leukemia.
In test [10] the test system is BT-549 breast.

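Five concentrations, 48 hours, 96-well plates. GI50: concentration for 50% inhibition of growth. At the TGI there is no net growth.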

As for `CCCCCCNCc1cc(C(C)(C)C)cc(CNCCCCCC)c1O`, the GI50 in test [1] is 1.69 µM; in [2], 0.549 µM; in [3], 1.77 µM; in test [4], 1.61 µM; in test [5], 1.8 µM; in [6], 1.83 µM. In addition, the GI50 in test [7] was 1.69 µM; in test [8] it was 1.66 µM; in test [9], 1.73 µM. The TGI is 3.08 µM in test [1]; 2.04 µM in test [2]; 3.26 µM in [3]; 2.98 µM in test [4]; 3.21 µM in [5]; 3.27 µM in [6]. Besides, the TGI was 4.26 µM in test [7], 3.1 µM in test [8] and 3.86 µM in test [9].
On to `COc1cc(C(C)O)c[n+](CCC2CNc3ccccc32)c1` (centres undefined), for which the TGI in test [1], in [3], in test [7], in test [8] and in [9] was above 100 µM in each case.
Turning to `CC(=O)c1ccc(NC(=O)C(=O)C(C#N)CC(C)(C)C=O)cc1` (centres undefined), the TGI in test [1], in [2], in [3], in test [6], in test [7] and in test [8] was above 100 µM in each case. The TGI in test [9] is above 100 µM.
Take `COc1ccc(NC(=O)CC(=O)n2nc(C)c(N=Nc3ccccc3C(=O)O)c2C)cc1`: the TGI in [1], in test [3], in [6], in test [7] and in test [8] was above 100 µM in each case.
Take `C=C(C(=C)P(=S)(C(C)C)C(C)C)P(=S)(C(C)C)C(C)C`: the TGI in [1], in [2], in test [3], in test [6], in [7] and in test [8] was above 100 µM in each case. This compound also displayed a TGI in [9] above 100 µM.
Consider `Cc1c2c(c(C)c3c1[nH]c1ccccc13)CN(C)CC2`, for which the TGI in test [1] was 27.4 µM; in [2], 57.5 µM; in [3], 29.6 µM; in test [6], 36.2 µM; in test [7] it was above 100 µM; in test [8], 28.6 µM. Besides, the TGI in [9] is 87.8 µM.
Regarding `OCCN(CCO)c1cccc(N(CCO)CCO)n1`, the TGI in [1], in test [2], in test [3], in test [6], in test [7] and in test [8] was above 100 µM in each case. Further, the TGI in test [9] was above 100 µM.
As to `c1ccc(OCc2nnc3n2N=C(c2ccccc2)CS3)cc1`, the TGI in test [1], in [2], in test [3], in test [6], in test [7] and in [8] was above 100 µM in each case. The TGI in test [9] was above 100 µM.
Consider `CC(=O)c1ccc(NC(=O)COC(=O)c2cccc3c(=O)c4ccccc4[nH]c23)cc1`, for which the TGI in [1], in [2], in test [3], in test [6], in [7] and in test [8] was above 100 µM in each case. The TGI in test [9] was above 100 µM.
For `COc1cccc(SSc2cccc(OC)c2C(=O)O)c1C(=O)O`, the TGI in test [1], in [2], in [3], in [6], in test [7] and in test [8] was above 100 µM throughout. For the same compound, the TGI in test [9] is above 100 µM.
With `Cl.Fc1c[c-]c(-c2ccccn2)c(F)c1.[Pt].c1ccc([PH+](C[PH+](c2ccccc2)c2ccccc2)c2ccccc2)cc1`, the GI50 in [1] is 0.266 µM; in test [2], 0.155 µM; in test [3], 0.211 µM; in test [4], 0.233 µM; in test [5], 0.355 µM; in [6], 0.231 µM. The GI50 in test [8] is 0.197 µM. The TGI in test [1] was 0.839 µM; in [2] it was 0.48 µM; in [3], 0.468 µM; in test [4], 0.574 µM; in test [5] it was 1.33 µM; in test [6], 0.706 µM. The compound also came in with a TGI in [8] of 0.494 µM.
On to `Nc1nc(N)c2nc3c(nc2n1)CCCCCCCCCC3`, for which the GI50 in test [1] was 3.36 µM; in [2] it was 3.23 µM; in test [3], 0.675 µM; in test [4], 0.577 µM; in test [5], 2.78 µM; in test [6] it was above 100 µM. For the same compound, the GI50 in [7] was 6.24 µM; in [8], 0.553 µM; in test [9] it was 5.03 µM. Also, the TGI in test [1], in test [2], in [3], in test [4], in [5] and in [6] was above 100 µM throughout. In addition, the TGI in test [7], in test [8] and in test [9] was above 100 µM each time.
`Cc1ccc(NC(=O)CCc2n[nH]c(=S)o2)cc1`: the TGI in [1], in test [2], in [3], in [6], in test [7] and in test [8] was above 100 µM throughout. Moreover, in [9], the TGI is above 100 µM.
`O=c1c2cc3c(cc2c2cccc4c2n1CCC4)OCO3`: the TGI in [1], in [2], in test [3], in test [6], in [7] and in [8] was above 100 µM in each case. The same compound yielded a TGI in [9] of 91.3 µM.
Consider `COc1cc2ccnc3c(=C(SC)SC)c(=O)c(c1OC)c23`, for which the TGI in test [1] was determined as 23.4 µM; in test [2], 21.2 µM; in test [3], 23.1 µM; in test [6] it was 26 µM; in test [7], 17 µM; in test [8] it was 31 µM.
For `Cc1ccc(C2NC(=O)c3ccccc3N2)c(C)c1` (centres undefined), the TGI in test [1] was 18.6 µM; in [2], above 95.7 µM; in [3], 97.5 µM; in test [4], 1.19 µM; in test [5], above 100 µM; in [6] it was above 100 µM. Further, the figures for the TGI in test [7], in test [8] and in [9] were above 100 µM, above 100 µM and above 71.8 µM, respectively.
For `N#CC1=C(O)NC(O)=C(C#N)C1c1ccc(C2C(C#N)=C(O)NC(O)=C2C#N)cc1`, the TGI in test [1], in test [3], in test [6], in test [7] and in test [8] was above 100 µM in each case.
In the case of `CC(=O)NC(C=O)C(O[C@H](C)C(=O)NC(C)C(=O)NC(CCC(N)=O)C(=O)OCc1ccccc1)C(O)C(O)COC(=O)CCNc1c2ccccc2nc2cccc([N+](=O)[O-])c12` (some centres undefined), the TGI in [1] stood at 93.1 µM; in test [2], 5.41 µM; in test [3] it was 18.7 µM; in test [6], 11.6 µM; in [7] it was 34.6 µM; in [8], 7.44 µM. In [9], this compound had a TGI of 2.69 µM.
`NC(=O)NC1C(C(=O)O)N(Cc2ccccc2)C(=O)N1Cc1ccccc1` (centres undefined): the TGI in test [1], in test [2], in test [3], in test [6], in [7] and in [8] was above 100 µM each time. In test [9], the TGI is above 100 µM.
Consider `O=C1CCCCC12CCC/C2=N\O` (centres undefined), for which the TGI in test [1], in [3], in [6], in test [7], in test [8] and in test [9] was above 100 µM in each case.
Regarding `O=C(NCCCl)SCCO`, the TGI in test [3], in [6], in test [7], in [8] and in test [9] was above 100 µM each time.
On to `O=C1OC(=O)C2C3C=CC(C12)C1C2C=CC2C31` (centres undefined), for which the TGI in test [1], in test [2], in test [3], in test [6], in test [7] and in test [8] was above 100 µM throughout. The same compound yielded a TGI in test [9] above 100 µM.
With `CC([O-])=C1C(=O)c2ccccc2C1=O.CC([O-])=C1C(=O)c2ccccc2C1=O.CC[O-].CC[O-].[Ti+4]`, the GI50 in [1] was 59.5 µM; in [2], above 100 µM; in [3], above 100 µM; in [6], above 100 µM; in test [7], above 100 µM; in test [8], above 100 µM. The GI50 in test [9] is above 100 µM. The TGI in test [1], in test [2], in test [3], in test [6], in [7] and in test [8] was above 100 µM each time. Also, in [9], the TGI is above 100 µM.
Regarding `CC(C)(C)N/N=C(\C(=O)NC1=C(Cl)C(=O)c2ccccc2C1=O)C1C=CCS1(=O)=O` (centres undefined), the TGI in test [1] was 45.6 µM; in test [2], 33 µM; in [3] it was 54 µM; in test [5], 23.2 µM; in test [6], above 100 µM; in test [7], above 100 µM. Further, the TGI was 25.1 µM in [10] and above 100 µM in test [8].
For `O=c1[nH]cnc2c(COCCO)c[nH]c12`, the TGI in [1], in test [2], in [3], in test [6], in test [7] and in test [8] was above 100 µM throughout. The same compound had a TGI in test [9] above 100 µM.
Turning to `N#Cc1cccc(C=NC23CC4CC(CC(C4)C2)C3)c1`, the TGI in test [1], in test [2], in [3], in test [6], in test [7] and in test [8] was above 100 µM in each case. Moreover, in [9], the TGI is above 100 µM.
In the case of `O=Cc1ccc(-c2ccc(-c3nc4ccccc4s3)cc2)s1`, the GI50 in test [1] was 48.2 µM; in test [3], 51.7 µM; in test [4], 56.2 µM; in test [5], 73 µM; in [6], above 100 µM; in [7], 26.5 µM. Also, the GI50 is 63.8 µM in test [10] and 56.4 µM in [8]. The TGI was above 100 µM in test [1]; above 100 µM in [3]; above 100 µM in test [4]; above 100 µM in test [5]; above 100 µM in test [6]; 90.7 µM in test [7]. Further, the TGI in test [10] and in test [8] was above 100 µM each time.
In the case of `COCCOCCOCCOc1cccc2c1C(=O)c1cccc(OCCOCCOCCOC)c1C2=O`, the TGI in [1], in [2], in test [3], in test [6], in [7] and in test [8] was above 100 µM in each case.
As to `COC(=O)Cc1cc(=O)[nH]c2c1C(=O)CCC2`, the TGI in test [2], in [3], in test [6], in test [7], in test [8] and in test [9] was above 100 µM in each case.
In the case of `Cc1ccc(S(=O)(=O)N/N=C/C(C)C)cc1`, the TGI in test [1], in test [2], in test [3], in test [7] and in test [8] was above 100 µM throughout.
For `CCCCCCCCCCCc1c(O)c(=O)c2c(oc3c(=O)c(CCCCCCCCCCC)c(O)c(=O)c3n2-c2ccc(N(C)C)cc2)c1=O`, the TGI is 39.7 µM in test [1]; 33.9 µM in test [3]; 40 µM in test [6]; 60.5 µM in test [7]; 68.6 µM in [8]; above 100 µM in test [9].
Consider `Cc1nc2ccccc2nc1N=Nc1ccccc1`, for which the GI50 was 3.03 µM in test [2]; 26.9 µM in test [3]; 18.3 µM in test [4]; 36.1 µM in [5]; 26 µM in test [6]; 25 µM in test [7]. In addition, the GI50 in test [9] is 19 µM. In addition, the TGI is 43.9 µM in [2]; above 100 µM in test [3]; 48.8 µM in test [4]; above 100 µM in [5]; above 100 µM in test [6]; above 100 µM in test [7]. For the same compound, the TGI in test [9] was above 100 µM.

Source of the values: PubChem BioAssay (NCI).
